Results: ChEMBL document CHEMBL1145663, “Studies on iridoid-related compounds, II. The structure and antimicrobial activity of aglucones of galioside and gardenoside” (1983)
Values after ≈ are worked out from the molar mass of the structure shown. Active and inactive are the calls of the source. No cut-off for these calls is given here.

Assays:
Staphylococcus aureus = experiment: Antimicrobial activity against Staphylococcus aureus after 20 hrs by agar dilution method; type: functional
Klebsiella pneumoniae = experiment: Antimicrobial activity against Klebsiella pneumoniae after 20 hrs by agar dilution method; type: functional

Row | MIC (Staphylococcus aureus) | MIC (Klebsiella pneumoniae) | SMILES | Activity (Staphylococcus aureus) | Activity (Klebsiella pneumoniae)
1 | 125 mg/L (≈ 516 µM) | 1000 mg/L (≈ 4130 µM) | COC(=O)C1=CO[C@@H](O)[C@H]2[C@@H]1C=C[C@]2(O)CO | – | –
2 | – | – | COC(=O)C1=CO[C@@H](O[C@@H]2O[C@H](CO)[C@@H](O)[C@H](O)[C@H]2O)[C@H]2[C@@H]1C=C[C@]2(O)CO | Active | Active
